For experiment [1], the system named is Escherichia coli strain BL21. Kind of experiment: Chronoamperometric detection of E. coli with electrochemically active reporters in three-electrode electrochemical systems (ECs). It is filed as cell-based. The settings on record: for Detection time (±std dev): chronoamperometry in ECs, reporter 50 μM. On the procedure: Resorufin (TCI-Europe), 2-hydroxy-1,4-naphthoquinone (2H14NQ) (TCI-Europe), 5-hydroxy-1,4-naphthoquinone (5H14NQ) (TCI-Europe) and 5,8-dihydroxy-1,4-naphthoquinone (58H14NQ) (Sigma-Aldrich) were obtained commercially and added to M9 medium in their unconjugated form to achieve a working concentration of 50 μM. Resorufin glycoconjugates (resorufin-β-d-galactopyranoside and resorufin-β-d-glucopyranoside) were obtained commercially (Sigma-Aldrich), whereas 2-hydroxy-1,4-naphthoquinone-β-d-galactopyranoside (2H14NQGal) and 2-hydroxy-1,4-naphthoquinone-β-d-glucopyranoside (2H14NQG1u) were specifically synthesized by Sussex Research Ltd. All reporters were added to a final concentration of 50 μM. Stock concentrations (1.0×10^−3 M) of 2H14NQ and 5H14NQ were prepared by first dissolving in 10 μL of 2 M NaOH and then making up to volume in Type II water (Veolia) whereas 58H14NQ (1.0×10^−3 M) was prepared in 1:1 DMSO:Type II water aliquots. Both stock solutions were stored at −20° C. until needed. Conjugated reporters were maintained as 1 mM stock solutions in Type II water and stored at 5° C.
(§1) Escherichia coli strain BL21 was selected to represent a FIB of human origin that contains the uidA and lacZ genes, i.e. a FC, whereas Aeromonas hydrophila (DSM 6173) is an environmental organism that has the lacZ gene but which is not considered a coliform. All organisms were cultured aerobically for 20 h. E. coli was grown in Luria Bertani (Lennox) medium at 37° C., and A. hydrophile at 30° C. in tryptone soy broth (TSB) in a shaking incubator.
(§2) The resulting overnight cultures were diluted in sterile modified M9 medium (Na2HPO4.7H2O (126 mM); KH2PO4 (110 mM); NH4Cl (93 mM); NaCl (42 mM); 1 mL/L vitamin stock solution; tryptone 12.5 g/L; HEPES: 6 g/L; and macro nutrients). The carbon source was either D-galacturonic acid or D-glucuronic acid (3.75 g/L) to achieve a final inoculum density in the range of 1.0×10^0, 5.0×10^0, 5.0×10^1, 5.0×10^2, 5.0×10^3, 5.0×10^4, and 5.0×10^5 CFU mL^−1 in both electrochemical system and the bioelectrochemical system.
Conical ECs with a working volume of 10 mL were used with a customized Teflon cap to accommodate a three electrode configuration along with gas fittings to maintain a moist anaerobic atmosphere. Carbon felt working electrodes (1×1×0.318 cm) (VWR, Singapore) were kept for 24 h in 1 M HCl and stored in deionized (DI) water before use. The electrodes were connected to titanium wire (0.25 mmØ, Sigma-Aldrich) using a nylon nut and bolt. A coiled titanium wire was used as counter electrode and an Ag/AgCl reference electrode (78 mm, 6 mm Outer Ø, Biologic, France) was connected using a 1 M KCl in 1.5% agar salt bridge. The assembled cell was then filled with 1 M KCl solution ending in a 4 mm glass frit (CoralPor™, Biologic, France). The entire assembly was then autoclaved (121° C. for 15 min). Nine mL of degassed modified M9 medium was added to the ECs and supplemented with a reporter to a final concentration of 5.0×10^−5 M in 10 mL working volume. The ECs were then inoculated with the targeted test organism to achieve a final working volume of 10 mL. The headspace was flushed continuously with sterile humidified N2. The ECs were operated at 30° C., 37° C. or 44.5° C. Stirring was maintained continuously with a magnetic stirrer in the dark to prevent photo-bleaching of the light sensitive mediators.
Following reporter supplement and inoculation with the test microorganism, the ECs were connected to a multichannel potentiostat (Biologic, France) and cyclic voltammetry (CV) and differential pulse voltammetry (DPV) were performed immediately. Data acquisition was recorded by EC-Lab software (Biologic, France). Chronoamperometry (CA) was applied for up to 24 h to detect redox active reporter moieties. A detection event was calculated as 4 times the standard deviation of the baseline and detection times are expressed as the mean of triplicate analyses unless stated otherwise. […]

Experiment [2] relates to mixed culture of E. coli and A. hydrophila. Nature of the experiment: Detection time of mixed culture of A. hydrophila and E. coli in ECs. Format: cell-based, Escherichia coli; Aeromonas hydrophila. The settings on record: 30° C., E. coli constant 5×10^5 CFU mL^−1. On the procedure:
as §1, §2
Conical ECs with a working volume of 10 mL were used with a customized Teflon cap to accommodate a three electrode configuration along with gas fittings to maintain a moist anaerobic atmosphere. Carbon felt working electrodes (1×1×0.318 cm) (VWR, Singapore) were kept for 24 h in 1 M HCl and stored in deionized (DI) water before use. The electrodes were connected to titanium wire (0.25 mmØ, Sigma-Aldrich) using a nylon nut and bolt. A coiled titanium wire was used as counter electrode and an Ag/AgCl reference electrode (78 mm, 6 mm Outer Ø, Biologic, France) was connected using a 1 M KCl in 1.5% agar salt bridge. […]
(§3) Following reporter supplement and inoculation with the test microorganism, the ECs were connected to a multichannel potentiostat (Biologic, France) and cyclic voltammetry (CV) and differential pulse voltammetry (DPV) were performed immediately. Data acquisition was recorded by EC-Lab software (Biologic, France). […] A detection event was calculated as 4 times the standard deviation of the baseline and detection times are expressed as the mean of triplicate analyses unless stated otherwise. […]

The subject of the next experiment is A. hydrophila. Kind of experiment: Electrochemical detection of A. hydrophila in ECs. Format: cell-based, Aeromonas hydrophila. The settings on record: both 30° C. and 37° C. (FIG. 5). On the procedure:
as §1
Conical ECs with a working volume of 10 mL were used with a customized Teflon cap to accommodate a three electrode configuration along with gas fittings to maintain a moist anaerobic atmosphere. Carbon felt working electrodes (1×1×0.318 cm) (VWR, Singapore) were kept for 24 h in 1 M HCl and stored in deionized (DI) water before use. The electrodes were connected to titanium wire (0.25 mmØ, Sigma-Aldrich) using a nylon nut and bolt. […]
as §3

For another experiment, the system named is Enterococcus faecalis. Kind of experiment: Suitability of colorimetric detection compounds for bioelectrochemical detection of Enterococcus faecalis. It is filed as cell-based. Conditions: compound used for colorimetric detection of Enterococcus faecalis. From the text:
Bioelectroanalytical techniques are emerging as ways to enumerate and scrutinize microbial systems. But there is still need in the art for technologies specifically designed for bioelectroanalytical detection of FIB. […] The latter, in particular, makes them unsuitable in self-powering systems.

Regarding `O=c1ccc2nc3ccc(O[C@@H]4O[C@H](CO)[C@H](O)[C@H](O)[C@H]4O)cc3oc-2c1` [ResGal, resorufin-β-d-galactopyranoside], the “Detection time (±std dev)” value in experiment [1] (30° C., inoculum 5 × 10^2 CFU mL^−1) is given as 521(±121) minutes; in experiment [1] (30° C., inoculum 5 × 10^3 CFU mL^−1), 372(±82) minutes; in experiment [1] (30° C., inoculum 5 × 10^4 CFU mL^−1), 218(±31) minutes; in experiment [1] (30° C., inoculum 5 × 10^5 CFU mL^−1), 150(±56) minutes; in experiment [1] (37° C., inoculum 5 × 10^2 CFU mL^−1), 734(±188) minutes; in experiment [1] (37° C., inoculum 5 × 10^3 CFU mL^−1), 477(±23) minutes. Besides, the “Detection time (±std dev)” value in experiment [1] (37° C., inoculum 5 × 10^4 CFU mL^−1) is recorded as 309(±55) minutes; in experiment [1] (37° C., inoculum 5 × 10^5 CFU mL^−1) it was 260 (±55) minutes. The “Detection times for E. coli” value in experiment [1] (30° C., inoculum sizes 5×10^5-5×10^2) was in the range of 132 to 521 min. The Detection time in experiment [1] (inoculum size 5×10^3 CFU mL^−1, ECs) was ~8 h. For the same compound, the “Detection of E. coli achieved in (time)” value in experiment [1] (inoculum sizes between 5×10^5 and 5×10^3 CFU mL^−1, ECs, triplicate) is 4 to 10 h. For the same compound, the “Detection time, mixed culture” value in experiment [2] (A. hydrophila 5×10^2 CFU mL^−1 (FIG. 5)) is ~450 min; in experiment [2] (A. hydrophila 5×10^5 CFU mL^−1 (FIG. 5)), ~280 min. For the same compound, the “Electrochemical detection of A. hydrophila” value in the experiment on A. hydrophila is reported as “could be detected electrochemically”.

Consider `Cc1cc(=O)oc2cc(OC3O[C@H](CO)[C@@H](O)[C@H](O)[C@H]3O)ccc12` (stereo partly drawn) [4-methylumbeliferone-glucoside], for which the “Suitability for bioelectrochemical detection” value in the experiment on Enterococcus faecalis was “not well suited for bioelectrochemical detection”.

(Values after patent publication US10179927B2, “Electrochemical detection of microorganisms” (priority 2014, dated 2019).)
